Laboratory results as given in PMC9671962 (Communications Biology, 2022).
Where “and” joins values, the source holds several entries; their conditions need not be identical. Equal values may be shown once.

Experiments:
NB-EBC1x tumor = assay: Biodistribution, autoradiography and tumor dosimetry in NB-EBC1x tumor-bearing mice; type: in vivo, female SCID CB17 mice; conditions: for %Injected Dose/gram, tumor: NB-EBC1 tumor, single mouse
Procedure: At various time points mice were euthanized and tissues were harvested, weighed, and assayed for radioactivity by gamma counter. Decay corrected data presented as percent injected dose per gram of tissue (%ID/g). Human dosimetry was calculated using OLINDA/EXM software by fitting time activity curves for biodistribution data. Tissue autoradiography was performed by freezing excised tumors at 1 h postinjection of each respective treatment. One tumor was collected for each treatment group. Tumors were cryosectioned (Leica Cryotome) at a thickness of 20 µm. Each section was collected with a 200 µm gap and a total of three sections were collected for each tumor. Sections were then exposed to a phosphorfilm for 60 h and films were read on a Cyclone Plus phosphorimager (Perkin Elmer). Experimental conditions have been included in the Supplementary Methods.
Animal studies were performed in female mice due to the lack of sex-related differences for [^211At]PTT tolerability from initial dose response studies performed in female and male mice. Female mice were chosen due to their underlying behavior towards other study subjects that reduced nonstudy-related causes for decreased wellness. Pre-clinical efficacy studies were performed through “single mouse testing” to more closely recapitulate a clinical trial. […] Number size for treatment groups was determined by model tumor growth reproducibility, which was previously shown to have less than 5% normal variation with at least two animals. Statistical tests for tumor response and event-free survival (EFS) were performed as a grouped analysis that included all tumor models treated at each respective dose level (n = 2 per model per dose level). Statistical differences between treatment groups for tumor response was performed by paired-model T-test that compared reduction in tumor volume for the 36 MBq/kg dose level vs. 24 MBq/kg or 12 MBq/kg. Event free survival was measured by area over the curve method to quantify time to event, which was set as tumor growth exceeding 2 cm[3],[19]. Differences in EFS were tested across all treated models for each respective dose level, and against untreated controls, by paired-model ANOVA analysis. Associations of drug target expression and response were performed by linear regression analysis of EFS and PARP1 mRNA expression. Genetic signatures were visually presented as a function of EFS and no statistical tests were applied. Blood and marrow toxicity studies were performed with n = 5 sample sizes and powered to detect >20% differences between untreated controls and treated animals. Results were tested for significance by one-way ANOVA comparison from untreated controls. Marrow colony formation assays were performed in replicates of 2 for each mouse subject, dependent on marrow isolation, and all replicates are included in final analyses. Statistical analysis was performed by ordinary one-way ANOVA comparison between the mean of control and test groups. Biodistribution studies were performed with n = 3 mice per time-point. Human dosimetry was calculated using OLINDA/EXM v1.1 software by fitting time activity curves for biodistribution data in a healthy mouse model. Tumor dosimetry was calculated by OLINDA/EXM v1.1 by fitting time activity curves for NB-EBC1 tumors from biodistribution data. All statistical analyses were performed in GraphPad Prism version 9.3.1 unless indicated otherwise.

COG-N-471x = assay: Pre-clinical efficacy study, COG-N-471x PDX; type: in vivo; conditions: 36 MBq/kg/fraction x 4 fractions, single mouse
Procedure: (§1) Patient demographics and genetic characteristics are listed in (Supplementary Tables 1, 2)[17]. The maximum tolerated dose (MTD) was determined to be 36 MBq/kg administered by intra-peritoneal injection twice weekly for a total of 4 dose fractions and this fractionated regimen was used in all studies (Supplementary Fig. 1)[18],[19]. […] Nine of 11 PDX models were MYCN amplified (Fig. 1b), which is a hallmark of high-risk neuroblastoma. Tumor response was measured as the maximum percent decrease in tumor volume after treatment and event-free survival (EFS) was measured by the area over the curve method with tumor events pre-defined by tumor growth exceeding 2 cm[3],[18].
The use of 2 mice per arm was based on the previously reported statistical analysis. […] Two additional dose levels of 12, and 24 MBq/kg/fraction were assessed in a subset of models and were administered as stated above. […] Tumors were measured using a digital caliper at the initiation of the study and two times per week during the treatment period. Tumor volumes were calculated as volume = ((diameter^1/2 + diameter^2/2)^3∗0.5236)/1000. Weights were obtained twice weekly and mice were monitored daily for signs of toxicity. […] Tumor response was assessed by best response defined as greatest reduction in tumor volume following the last dose and is presented as percent change in tumor volume. […]

NB-SDx = assay: Pre-clinical efficacy study, NB-SDx PDX; type: in vivo; conditions: single mouse
Procedure: as §1
The use of 2 mice per arm was based on the previously reported statistical analysis. PDX tumors were implanted into the right flank of 5 to 6-weeks old female mice weighing about 20–25 grams. […] Two additional dose levels of 12, and 24 MBq/kg/fraction were assessed in a subset of models and were administered as stated above. In two models treated at the 24 MBq/kg/fraction dose level we re-challenged tumor response at the time of tumor progression with an additional 4 dose fractions at 24 MBq/kg/fraction given twice weekly. Doses were prepared in 500 µL total volume. An equal volume of saline was used for the vehicle group. Tumors were measured using a digital caliper at the initiation of the study and two times per week during the treatment period. Tumor volumes were calculated as volume = ([…]∗0.5236)/1000. Weights were obtained twice weekly and mice were monitored daily for signs of toxicity. […] Tumor response was assessed by best response defined as greatest reduction in tumor volume following the last dose and is presented as percent change in tumor volume. Event-free survival was determined by area over the curve method that calculates the time to tumor event, which was defined as tumors reaching or exceeding a size ≥ 2 cm^3.
Animal studies were performed in female mice due to the lack of sex-related differences for [^211At]PTT tolerability from initial dose response studies performed in female and male mice. Female mice were chosen due to their underlying behavior towards other study subjects that reduced nonstudy-related causes for decreased wellness. Pre-clinical efficacy studies were performed through “single mouse testing” to more closely recapitulate a clinical trial. […] Number size for treatment groups was determined by model tumor growth reproducibility, which was previously shown to have less than 5% normal variation with at least two animals. […] Event free survival was measured by area over the curve method to quantify time to event, which was set as tumor growth exceeding 2 cm[3],[19]. […]

[1] = cited from earlier work
[2] = 24 MBq/kg/fraction x 4 fractions
[3] = 36 MBq/kg/fraction x 4 fractions

O=C1NCCn2c(-c3ccc([211At])cc3)nc3cccc1c32 [[^211At]PTT, Astatine-211-parthanatine]
average tumor dose (NB-EBC1x tumor; 1-year-old phantom, derived from NB-EBC1 tumor-bearing mouse model): 0.060 Gy per MBq/kg | thyroid uptake with co-administration of potassium iodide (NB-EBC1x tumor; 1 h): partially blocked | Absorbed Dose, Tumor (NB-EBC1x tumor; NB-EBC1 tumor-bearing CB57 SCID mice, three values): 4.5716 cGy/MBq/kg and 5.9806 cGy/MBq/kg and 7.417 cGy/MBq/kg | %Injected Dose/gram, tumor (NB-EBC1x tumor; time point 0.5): 2.4065 %ID/g and 3.551 %ID/g and 6.66 %ID/g | %Injected Dose/gram, tumor (NB-EBC1x tumor; time point 1): 8.705 %ID/g and 13.3276 %ID/g and 24.86 %ID/g | %Injected Dose/gram, tumor (NB-EBC1x tumor; time point 6): 7.986 %ID/g and 8.236 %ID/g and 8.192 %ID/g | %Injected Dose/gram, tumor (NB-EBC1x tumor; time point 24): 0.008485 %ID/g and 1.144 %ID/g and 1.578 %ID/g | tumor penetrance by ex-vivo autoradiography (NB-EBC1x tumor; NB-EBC1 tumors, 1 h postinjection): high tumor penetrance | tumor dosimetry (estimated) (NB-EBC1x tumor; NB-EBC1x tumor-bearing mouse model): 6 cGy/MBq/kg | cumulative absorbed dose to tumor (NB-EBC1x tumor; NB-EBC1x, after 4 dose fractions of 36 MBq/kg): 8.6 Gy | absorbed dose to tumor per dose fraction (NB-EBC1x tumor; NB-EBC1x, per 36 MBq/kg dose): 2.15 Gy | biological half-life in tumor (NB-EBC1x tumor; seen in mice in the present study): 5.1 hr | EFS by AOC method (COG-N-471x): 83.4773 days and 64.9075 days | Tumor response (% growth from study initiation at ~ 200 mm3) (COG-N-471x): -100% | EFS by AOC method (NB-SDx; [2]): 44.1 days and 46.5 days and 44.0589 days and 46.4742 days | Tumor response (% growth from study initiation at ~ 200 mm3) (NB-SDx; [2]): -80.9524% and -80% | EFS by AOC method (NB-SDx; [3]): 59.408 days and 51.1551 days | Tumor response (% growth from study initiation at ~ 200 mm3) (NB-SDx; [3]): -96.9697% and -85.7143% | fold more cytotoxic than the non-radioactive PARP inhibitor analog (KX1) [1]: ~1 billion
